Reference: ChEMBL document CHEMBL2034892, “The relevance of higher plants in lead compound discovery programs” (J Nat Prod, 2011)
In brackets after ≈: the same amount, converted by molar mass.

Key:
[1] = test system: HT-29; test: Cytotoxicity against human HT-29 cells; type: functional; settings: read-out: ED50 (the source's name)
[2] = molecular target: T1, Taste receptor type 2 member 31 (Homo sapiens, UniProt P59538); test: Inhibition of human TAS2R31 receptor expressed in HEK293T cells overexpressing chimeric G-protein alpha-subunit; type: cell-based, HEK-293T
T1 sequence (P59538 whole entry): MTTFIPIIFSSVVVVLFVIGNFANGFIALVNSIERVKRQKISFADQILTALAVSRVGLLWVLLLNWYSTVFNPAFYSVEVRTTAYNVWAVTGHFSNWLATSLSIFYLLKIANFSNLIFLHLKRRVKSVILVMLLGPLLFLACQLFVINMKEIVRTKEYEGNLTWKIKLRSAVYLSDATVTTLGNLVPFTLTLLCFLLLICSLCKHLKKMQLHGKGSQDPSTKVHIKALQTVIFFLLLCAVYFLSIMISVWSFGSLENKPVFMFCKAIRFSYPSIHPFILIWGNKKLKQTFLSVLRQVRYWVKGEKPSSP

[3] = Inhibition of proteasome; type: subcellular
[4] = Oral bioavailability in C57BL/6 mouse; type: ADME, organism-based; settings: in vivo
[5] = test system: P388; test: Antitumor activity against mouse P388 cells xenografted in mouse assessed as increase in life span at 2.5 mg/kg, ip dosed daily for 5 days; type: functional; settings: route intraperitoneal
[6] = test system: P388; test: Antitumor activity against mouse P388 cells xenografted in mouse assessed as increase in life span at 2 mg/kg, iv dosed twice daily for 5 days
[7] = Systemic availability in ip dosed C57BL/6 mouse; type: ADME, organism-based; settings: in vivo
[8] = test system: KB; test: Cytotoxicity against human KB cells; type: functional, cell-based

CC(C)=CCc1c2c(c(O)c3c1O[C@]14C(=C[C@@H]5C[C@H]1C(C)(C)O[C@@]4(C/C=C(/C)C(=O)O)C5=O)C3=O)C=CC(C)(C)O2
EC50 [1]: 0.36 µM

COc1cc2c(c(O)c1OC)C(=O)C[C@@H](c1ccc(O)cc1)O2
IC50 [2]: 2.5 µM

COc1cc([C@@H]2CC(=O)c3c(O)cc(O)cc3O2)ccc1OC(=O)C(C)C
IC50 [2]: 2 µM

COc1cc(-c2cc(=O)c3c(O)c(OC)c(O)cc3o2)ccc1O [JACEOSIDINE]
IC50 [2]: 11.3 µM

O=C1c2c(O)cc(O)cc2O[C@H](c2ccc(O)cc2)[C@H]1c1c(O)cc(O)c2c(=O)cc(-c3ccc(O)c(O)c3)oc12 [MORELLOFLAVONE]
IC50 [3]: 1.3 µM

COc1cc(O)c2c(c1)O[C@H](c1ccc(O)cc1)CC2=O [SAKURANETIN]
IC50 [2]: 3.6 µM

COC(=O)[C@H]1[C@@H](O)[C@@]2(O)c3c(OC)cc(O[C@@H]4O[C@@H]([C@H](O)CO)CO[C@H]4OC)cc3O[C@@]2(c2ccc(OC)cc2)[C@@H]1c1ccccc1 [SILVESTROL]
bioavailability [4]: 1.7% | T/C [5]: 150% | T/C [6]: 129% | bioavailability [7]: 100%

Oc1ccc([C@H]2c3c(O)cc4c(c3[C@@H]3c5c(O)cc6c(c5[C@H]2[C@@H]3c2ccc(O)cc2)[C@H](c2cc(O)cc(O)c2)[C@@H](c2ccc(O)cc2)O6)[C@@H](c2cc(O)cc(O)c2)[C@H](c2ccc(O)cc2)O4)cc1 [VATDIOSPYROIDOL]
EC50 [8]: 1 µg/mL (≈ 1.1 µM)
